ChEMBL document CHEMBL5537139, “Promises of anionic calix[n]arenes in life science: State of the art in 2023” (Eur J Med Chem, 2024)

Columns and labels:
bovine serum albumin = bovine serum albumin (Bos taurus, UniProt P02769); test: Inhibition of bovine serum albumin at 1 uM by SPR analysis relative to control; conditions: cattle
[1] = Inhibition of influenza A virus A/H3N2 neuraminidase
Caco-2 = test: Anticancer activity against human Caco-2 cells assessed as inhibition of cell viability; type: functional, cell-based
HT-29 = test: Anticancer activity against human HT-29 cells assessed as reduction in cell viability incubated for 24 hrs by MTT assay; type: functional, cell-based; conditions: HT-29, 24 h
[2] = Binding affinity to Methyl-lysine (unknown origin) assessed as dissociation constant; parameters: species or system Homo sapiens
[3] = Binding affinity to trimethyl-lysine (unknown origin) assessed as dissociation constant; parameters: species or system Homo sapiens

bovine serum albumin, sequence (P02769 whole entry): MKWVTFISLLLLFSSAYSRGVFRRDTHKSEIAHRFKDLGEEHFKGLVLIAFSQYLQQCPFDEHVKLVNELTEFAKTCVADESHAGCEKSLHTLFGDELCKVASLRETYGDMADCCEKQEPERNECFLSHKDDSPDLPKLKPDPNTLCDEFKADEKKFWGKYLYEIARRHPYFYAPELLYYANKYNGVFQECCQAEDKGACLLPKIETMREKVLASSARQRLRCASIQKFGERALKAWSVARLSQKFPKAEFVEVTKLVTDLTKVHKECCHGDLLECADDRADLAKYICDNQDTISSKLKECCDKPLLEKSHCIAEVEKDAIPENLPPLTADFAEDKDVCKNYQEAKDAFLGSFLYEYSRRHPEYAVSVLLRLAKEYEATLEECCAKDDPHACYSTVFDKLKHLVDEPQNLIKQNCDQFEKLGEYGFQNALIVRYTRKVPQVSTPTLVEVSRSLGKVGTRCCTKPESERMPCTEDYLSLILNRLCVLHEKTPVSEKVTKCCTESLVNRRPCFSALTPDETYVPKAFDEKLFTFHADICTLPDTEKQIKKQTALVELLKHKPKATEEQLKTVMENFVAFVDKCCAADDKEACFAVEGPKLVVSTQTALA

CC[C@@]1(O)C(=O)OCc2c1cc1n(c2=O)Cc2cc3ccccc3nc2-1 [CAMPTOTHECIN]
inhibition at 1 µM (bovine serum albumin): 98%

O=S(=O)(O)c1cc2c(O)c(c1)Cc1cc(S(=O)(=O)O)cc(c1O)Cc1cc(S(=O)(=O)O)cc(c1O)Cc1cc(S(=O)(=O)O)cc(c1O)Cc1cc(S(=O)(=O)O)cc(c1O)Cc1cc(S(=O)(=O)O)cc(c1O)Cc1cc(S(=O)(=O)O)cc(c1O)Cc1cc(S(=O)(=O)O)cc(c1O)C2
IC50 [1]: 6.4 µM

CCCCCCOc1c2cc(P(=O)(O)O)cc1Cc1cc(P(=O)(O)O)cc(c1OCCCCCC)Cc1cc(P(=O)(O)O)cc(c1OCCCCCC)Cc1cc(P(=O)(O)O)cc(c1OCCCCCC)C2
IC50 (Caco-2): 3.88 µM | IC50 (HT-29): 8.79 µM

CO[C@@]12[C@H](COC(N)=O)C3=C(C(=O)C(C)=C(N)C3=O)N1C[C@@H]1N[C@@H]12 [MITOMYCIN]
inhibition at 1 µM (bovine serum albumin): 94%

O=S(=O)(O)c1cc2c(O)c(c1)Cc1cc(S(=O)(=O)O)cc(c1O)Cc1cc(S(=O)(=O)O)cc(c1O)Cc1cc(S(=O)(=O)O)cc(c1O)C2
Kd [2]: 15.6 µM | Kd [3]: 27 µM

COc1cccc2c1C(=O)c1c(O)c3c(c(O)c1C2=O)C[C@@](O)(C(=O)CO)C[C@@H]3O[C@H]1C[C@H](N)[C@H](O)[C@H](C)O1 [DOXORUBICIN]
inhibition at 1 µM (bovine serum albumin): 87%
